Data set [1] can be described thus: Stability in the mouse liver microsome. The following applies: for microsomal CLint at 0.5 μM: CD-1, mouse, liver microsomes, pH 7.4; for Clapp / Clh / Eh / k: CD-1 mouse liver microsomes.
In a further data set the test system is KM mice. The data set can be described thus: Acute toxicity in mice. The format is in vivo.
Data set [2] can be described thus: Solubility in simulated gastric/intestinal fluids. The format is physicochemical. The settings on record: simulated intestinal fluid, pH 6.8.
Data set [3] is described as follows: Pharmacokinetics analysis of 3r in CD-1 mice. The class given is in vivo. The settings on record: 5 mg/kg.
Data set [4] concerns G-6-Pase mRNA expression in HepG2 cell. The data set can be described thus: Cell-based assay for inhibition on the mRNA expression of G-6-Pase.
Data set [5] has as its system PEPCK mRNA expression in HepG2 cell. The data set can be described thus: Cell-based assay for inhibition on the mRNA expression of PEPCK.
Data set [6] is described as follows: Pharmacokinetics analysis of 8r in SD rats. The following applies: 5 mg/kg; for T1/2: SD rats. The format is in vivo.
Data set [7] deals with T1, PDE9A2 (181–506) (Homo sapiens, UniProt O76083). The data set can be described thus: PDE enzymatic assay, PDE9A2 catalytic domain. The format is biochemical.
Another data set is described as follows: Pharmacokinetics of 28s. The class given is in vivo. The following applies: blood, po, 5 mg/kg.
Data set [8] addresses T1, PDE9A2 (181–506). The settings on record: read-out: IC50 ± SD, PDE9A2 (181–506); 28s from previous report; cited from earlier work.
[9] abbreviates: HepG2 cell-based assay, general statement.
Setting [10] is: HepG2 cell, cAMP/dexamethasone stimulation, 300 nM, in words.

In brackets after ≈: the same amount, converted by molar mass.

T1 sequence (O76083 241-566): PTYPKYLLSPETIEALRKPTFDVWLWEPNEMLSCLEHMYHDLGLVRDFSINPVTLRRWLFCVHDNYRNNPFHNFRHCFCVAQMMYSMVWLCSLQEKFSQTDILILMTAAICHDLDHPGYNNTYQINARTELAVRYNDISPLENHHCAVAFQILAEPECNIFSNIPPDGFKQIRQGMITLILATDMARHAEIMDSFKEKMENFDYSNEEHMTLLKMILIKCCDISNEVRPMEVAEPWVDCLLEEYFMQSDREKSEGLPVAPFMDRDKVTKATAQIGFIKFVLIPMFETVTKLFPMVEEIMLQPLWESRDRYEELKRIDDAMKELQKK

One may read the microsomal CLint as the capacity of the preparation to metabolise the compound, expressed as a volume cleared per time. Read a low microsomal CLint as slow turnover. As a reminder, the solubility is the concentration that dissolves in the medium under given conditions. The MRT inf is the average time that molecules of a dose stay in the body. The Vd is a proportionality between amount in the body and measured concentration, not a real space. Usually clearance stands for a measure of how efficiently the substance is removed, as volume per time. Low readings indicate inefficient removal, high ones efficient removal. As usually defined, the Cmax is the peak of the concentration-time curve. Usually Tmax stands for the time at which the peak concentration occurs. For orientation: bioavailability means dose-corrected exposure relative to a reference, in per cent. High values mean good availability, low ones poor availability. In data set [1], `COc1ccc(NC(=O)[C@@H](C)Nc2nc3c(cnn3C3CCCC3)c(=O)[nH]2)cc1` [Compound 3r, (R)-2-((1-Cyclopentyl-4-hydroxy-1H-pyrazolo[3,4-d]pyrimidin-6-yl)amino)-N-(4-methoxyphenyl)propanamide] gave a microsomal CLint at 0.5 μM of 62 µL/min/mg, a Clapp of 244.3 mL min^–1 kg^–1, a Clh of 65.8 mL min^–1 kg^–1 and an Eh of 73.1%. Further, the k in data set [1] is 0.03102. Further, the dose well tolerated with KM mice (single oral dose) is no more than 1200 mg/kg. Moreover, in the data set with KM mice (single oral dose up to 1200 mg/kg), the acute toxicity result was “no acute toxicity”. Besides, the “abnormal behaviors, water/food consumption and body weight” value in the data set on KM mice (single oral doses 600 or 1200 mg/kg, 2 weeks) was “no abnormal behaviors and significant changes of water/food consumption and body weight were observed”. Moreover, in data set [2], the solubility is 0.031 ± 0.004 mg/mL (≈ 78.2 µM). Besides, the T1/2 in data set [3] (iv, CD-1 mice) was determined as 5.34 ± 1.43 h. In [3] (male, CD-1, mouse, blood, iv), this molecule had an MRT inf of 1.08 ± 0.08 h, a distribution volume (Vd) of 1.53 ± 0.15 L/kg and a clearance of 1.43 L/h/kg. In addition, the C0 in data set [3] (male, CD-1, mouse, blood, iv, C0, iv, CD-1 mice) was determined as 24.5 ± 7.53 µg/mL. Also, in data set [3] (male, CD-1, mouse, blood, po), the highest level (Cmax) was 0.217 µg/mL, the MRT inf was 2.65 ± 0.82 h, the time of peak concentration (Tmax) came to 0.58 ± 0.38 h and the bioavailability came to 9.8 ± 3.1%. In addition, in data set [3] (po, CD-1 mice), the CL is 14.6 ± 3.5 L h^–1 kg^–1, the T1/2 is recorded as 1.67 ± 0.04 h and the Vss stood at 35.0 ± 7.9 L/kg. Also, the “mRNA expression of glucose 6-phosphatase” value in [4] (setting [9]) was “inhibits the mRNA expression”. Further, the “8-Br-cAMP/dexamethasone-induced expression of G-6-Pase” value in [4] (HepG2 cells, 10 nM, in words) is reported as “back to the basal level”. Also, in data set [5] (setting [9]), the “mRNA expression of phosphoenolpyruvate carboxykinase” value is “inhibits the mRNA expression”. The “8-Br-cAMP/dexamethasone-induced expression of PEPCK” value in [5] (HepG2 cells, 10 nM, in words) is on record as “back to the basal level”.
In data set [6] (iv), `C[C@@H](Nc1nc2c(cnn2C2CCCC2)c(=O)[nH]1)C(=O)Nc1ccc(F)cc1` [Compound 8r, (R)-2-((1-Cyclopentyl-4-oxo-4,5-dihydro-1H-pyrazolo[3,4-d]pyrimidin-6-yl)amino)-N-(4-fluorophenyl)propanamide] had a T1/2 of 1.01 ± 0.09 h. In data set [6] (male, SD, rat, blood, iv), the C0 stood at 19.1 ± 0.428 µg/mL, the MRT inf was found to be 0.59 ± 0.13 h, the Vd was found to be 2.58 ± 0.07 L/kg and the clearance is 1.78 L/h/kg. Further, in [6] (male, SD, rat, blood, po), the highest concentration (Cmax) came out at 0.135 ± 0.055 µg/mL, the MRT inf came out at 3.94 ± 1.11 h, the Tmax was 1 ± 0.87 h and the bioavailability came out at 18 ± 7%. The molecule also returned a T1/2 in data set [6] (po) of 4.08 ± 1.00 h.
One may read the Ki as the dissociation constant of the complex between target and ligand, obtained from inhibition or displacement. Take `COc1ccc(NC(=O)[C@@H](C)Nc2nc3c(cnn3-c3ccccc3Cl)c(=O)[nH]2)cc1` [Compound 28r, (R)-2-((1-(2-Chlorophenyl)-4-hydroxy-1H-pyrazolo[3,4-d]pyrimidin-6-yl)amino)-N-(4-methoxyphenyl)propanamide]: the affinity at PDE9A2 (181–506) [7], expressed as Ki, was 0.005 µM.
The term IC50 denotes the concentration needed to halve the response being measured. Molecule `COc1ccc(NC(=O)[C@H](C)Nc2nc3c(cnn3-c3ccccc3Cl)c(=O)[nH]2)cc1` [Compound 28s] registered a Cmax in “Pharmacokinetics of 28s” of 0.016 µg/mL. Moreover, on PDE9A2 (181–506) [8], the IC50 was 0.021 ± 0.005 µM. In addition, the affinity at PDE9A2 (181–506) [7] corresponds to a Ki of 0.016 µM.
In data set [1], `C[C@]12CC[C@H]3[C@@H](CCC4=CC(=O)CC[C@@]43C)[C@@H]1CC[C@@H]2O` [testosterone] yielded a microsomal CLint at 0.5 μM of 692 µL/min/mg, a Clapp of 2725.1 mL min^–1 kg^–1, a Clh of 87.1 mL min^–1 kg^–1 and an Eh of 96.8%. In addition, the k in [1] amounted to 0.346.
Turning to `CC(=O)CC(c1ccccc1)c1c(O)c2ccccc2oc1=O` (stereo not drawn) [warfarin], in data set [1], the Clapp stood at 30.9 mL min^–1 kg^–1 and the Clh came out at 23.0 mL min^–1 kg^–1.
As to insulin, the “mRNA expression of G-6-Pase” value in data set [4] (setting [10]) is “to the basal level”. Also, the “mRNA expression of PEPCK” value in data set [5] (setting [10]) was “to the basal level”.
